In US20080009418A1, “Selective Inhibitors” (Alchemia LTD., priority 2004, published 2008):

Legend:
[1] = target: T1, Mouse urotensin (mUR2) (Mus musculus, UniProt Q8VIH9); experiment: Radioligand binding, mouse urotensin mUR2 membranes, FlashPlate, [125I]-Urotensin II; settings: compound at 10 μM, [125I]-Urotensin II
T1 construct: purchased Perkin Elmer Biosignal
T1 sequence (Q8VIH9 1-385): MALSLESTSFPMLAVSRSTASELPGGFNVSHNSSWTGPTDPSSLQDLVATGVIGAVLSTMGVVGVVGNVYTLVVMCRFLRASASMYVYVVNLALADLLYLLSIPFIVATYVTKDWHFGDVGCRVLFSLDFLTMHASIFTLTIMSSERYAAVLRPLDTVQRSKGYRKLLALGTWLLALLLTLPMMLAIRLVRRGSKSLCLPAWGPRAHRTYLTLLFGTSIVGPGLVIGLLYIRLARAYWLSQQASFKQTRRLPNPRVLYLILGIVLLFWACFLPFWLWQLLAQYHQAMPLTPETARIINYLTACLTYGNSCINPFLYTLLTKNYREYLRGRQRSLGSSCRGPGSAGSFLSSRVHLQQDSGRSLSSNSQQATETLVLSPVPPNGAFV
Method in brief: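 Cloned mouse urotensin (mUR2) receptor membranes from Perkin Elmer Biosignal were immobilized in FlashPlate microplates using a proprietary coating. Each well got 19.5 μl buffer, then 0.5 μl of DMSO, reference ligand, or compound. Adding 5 μl of [125I]-Urotensin II, diluted to 5× final concentration in binding buffer, started binding. Plates were sealed with TopSeal-A and incubated 1 hour at room temperature in the dark. Wells were counted for 30 seconds each on a TopCount after a 60-second delay, and percentage inhibition was calculated.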

[2] = target: T2, Human Melanocortin (MC4) (Homo sapiens, UniProt P32245); experiment: Radioligand binding, human melanocortin MC4 membranes, FlashPlate, [125I]-NDP-αMSH; settings: compound at 10 μM, [125I]-NDP-αMSH
T2 construct: purchased Perkin Elmer Biosignal
Method in brief: (§1)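 Cloned human receptor membranes were coated onto FlashPlate wells and incubated with radioligand and compound (added from a 0.5 mM DMSO daughter plate) for 1 hour at room temperature in the dark. Scintillation counting gave percent inhibition, with DMSO defining total and reference ligand defining non-specific binding.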

[3] = target: T3, Human δ-opioid (DOP) (Homo sapiens, UniProt P41143); experiment: Radioligand binding, human δ-opioid (DOP) membranes, FlashPlate, [3H]-Bremazocine; settings: compound at 10 μM, [3H]-Bremazocine
T3 construct: purchased Perkin Elmer Biosignal
Method in brief: as §1

[4] = target: T4, Human melanin-concentrating hormone (MCH1) (Homo sapiens, UniProt Q99705); experiment: Radioligand binding, human melanin-concentrating hormone MCH1 membranes, FlashPlate, [125I]-S36057; settings: compound at 10 μM
T4 construct: purchased Perkin Elmer Biosignal
Method in brief: as §1

[5] = target: T5, Human opioid (ORL1) (Homo sapiens, UniProt P41146); experiment: Radioligand binding, human opioid ORL1 membranes, FlashPlate, [125I]-Nociceptin; settings: compound at 10 μM, [125I]-Nociceptin
T5 construct: purchased Perkin Elmer Biosignal
Method in brief: as §1

[6] = target: T6, Human melanocortin (MC5) (Homo sapiens, UniProt P33032); experiment: Radioligand binding, human melanocortin MC5 membranes, FlashPlate, [125I]-NDP-αMSH; settings: compound at 10 μM, [125I]-NDP-αMSH
T6 construct: purchased Perkin Elmer Biosignal
Method in brief: as §1

[7] = target: T7, Human neurokinin (NK1) (Homo sapiens, UniProt P25103); experiment: Radioligand binding, human neurokinin NK1 membranes, filtration, [125I]-Substance P; settings: compound at 10 μM, [125I]-Substance P
T7 construct: purchased Perkin Elmer Biosignal
Method in brief: (§2)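 Percent inhibition of radioligand binding measured on recombinant human membranes: NK1 with [125I]-Substance P, KOP with [3H]-Diprenorphine. Incubation 1 h at room temperature, then harvest onto 0.3% PEI-soaked filters, cold Tris-HCl pH 7.4 washes and scintillation counting; non-specific binding from reference ligand wells.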

[8] = target: T8, Human κ-Opioid (KOP) (Homo sapiens, UniProt P41145); experiment: Radioligand binding, human κ-opioid (KOP) membranes, filtration, [3H]-Diprenorphine; settings: compound at 10 μM, [3H]-Diprenorphine
T8 construct: purchased Perkin Elmer Biosignal
Method in brief: as §2

[9] = target: T9, Human Melanocortin (MC3) (Homo sapiens, UniProt P41968); experiment: Radioligand binding, human melanocortin MC3 membranes, FlashPlate, [125I]-NDP-αMSH; settings: compound at 10 μM, [125I]-NDP-αMSH
T9 construct: purchased Perkin Elmer Biosignal
Method in brief: as §1

[10] = target: T10, Human μ-opioid (MOP) (Homo sapiens, UniProt P35372); experiment: Radioligand binding, human μ-opioid (MOP) membranes, FlashPlate, [3H]-Naloxone; settings: compound at 10 μM, [3H]-Naloxone
T10 construct: purchased Perkin Elmer Biosignal
Method in brief: as §1

[11] = target: T11, Human neuropeptide Y (NPY-Y1) (Homo sapiens, UniProt P25929); experiment: Radioligand binding, human neuropeptide Y NPY-Y1 membranes, FlashPlate, [125I]-PYY; settings: compound at 10 μM, [125I]-PYY
T11 construct: purchased Perkin Elmer Biosignal
T11 sequence (P25929 1-384): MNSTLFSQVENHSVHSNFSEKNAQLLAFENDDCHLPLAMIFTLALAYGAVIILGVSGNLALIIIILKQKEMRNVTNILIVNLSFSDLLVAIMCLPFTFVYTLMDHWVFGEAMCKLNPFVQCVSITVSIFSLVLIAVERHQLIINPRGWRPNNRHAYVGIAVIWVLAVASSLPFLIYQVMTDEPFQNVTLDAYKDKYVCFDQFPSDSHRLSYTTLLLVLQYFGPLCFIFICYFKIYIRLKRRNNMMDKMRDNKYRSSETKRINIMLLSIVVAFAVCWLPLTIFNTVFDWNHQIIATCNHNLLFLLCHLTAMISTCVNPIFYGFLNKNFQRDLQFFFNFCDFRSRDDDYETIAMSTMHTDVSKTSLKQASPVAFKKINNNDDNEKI
Method in brief: as §1

[12] = [125I]-S36057, human MCH1 membranes

T7 sequence (P25103 whole entry): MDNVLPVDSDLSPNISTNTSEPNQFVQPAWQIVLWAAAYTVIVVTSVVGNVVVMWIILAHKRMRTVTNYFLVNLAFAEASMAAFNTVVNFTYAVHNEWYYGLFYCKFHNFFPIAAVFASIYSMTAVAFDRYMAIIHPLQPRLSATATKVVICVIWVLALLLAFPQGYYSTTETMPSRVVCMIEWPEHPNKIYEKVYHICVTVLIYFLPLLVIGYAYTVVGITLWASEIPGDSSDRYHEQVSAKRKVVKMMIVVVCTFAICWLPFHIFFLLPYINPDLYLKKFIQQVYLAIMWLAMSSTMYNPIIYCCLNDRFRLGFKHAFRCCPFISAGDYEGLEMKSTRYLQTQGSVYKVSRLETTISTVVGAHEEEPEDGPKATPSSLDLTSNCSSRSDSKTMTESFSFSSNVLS
T4 sequence (Q99705 whole entry): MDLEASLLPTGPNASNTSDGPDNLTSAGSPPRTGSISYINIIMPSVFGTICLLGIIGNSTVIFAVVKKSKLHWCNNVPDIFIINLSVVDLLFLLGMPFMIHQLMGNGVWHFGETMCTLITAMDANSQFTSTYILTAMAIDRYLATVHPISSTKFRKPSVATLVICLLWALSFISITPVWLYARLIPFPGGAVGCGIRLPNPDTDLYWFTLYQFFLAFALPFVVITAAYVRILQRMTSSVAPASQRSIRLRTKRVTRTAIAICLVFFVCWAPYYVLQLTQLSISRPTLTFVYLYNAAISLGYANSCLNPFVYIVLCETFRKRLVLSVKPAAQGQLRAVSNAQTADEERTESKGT
T10 sequence (P35372 whole entry): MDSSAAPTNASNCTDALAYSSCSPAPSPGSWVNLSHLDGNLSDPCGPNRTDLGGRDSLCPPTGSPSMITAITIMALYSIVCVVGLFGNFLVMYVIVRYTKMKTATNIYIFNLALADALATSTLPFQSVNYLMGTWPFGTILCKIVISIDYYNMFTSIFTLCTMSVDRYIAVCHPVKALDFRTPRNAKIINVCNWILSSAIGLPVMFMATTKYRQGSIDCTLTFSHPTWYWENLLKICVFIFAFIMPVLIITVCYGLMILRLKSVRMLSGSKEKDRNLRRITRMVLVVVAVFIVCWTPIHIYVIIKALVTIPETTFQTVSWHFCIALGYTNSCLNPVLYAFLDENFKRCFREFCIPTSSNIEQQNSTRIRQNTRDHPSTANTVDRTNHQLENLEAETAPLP
T3 sequence (P41143 whole entry): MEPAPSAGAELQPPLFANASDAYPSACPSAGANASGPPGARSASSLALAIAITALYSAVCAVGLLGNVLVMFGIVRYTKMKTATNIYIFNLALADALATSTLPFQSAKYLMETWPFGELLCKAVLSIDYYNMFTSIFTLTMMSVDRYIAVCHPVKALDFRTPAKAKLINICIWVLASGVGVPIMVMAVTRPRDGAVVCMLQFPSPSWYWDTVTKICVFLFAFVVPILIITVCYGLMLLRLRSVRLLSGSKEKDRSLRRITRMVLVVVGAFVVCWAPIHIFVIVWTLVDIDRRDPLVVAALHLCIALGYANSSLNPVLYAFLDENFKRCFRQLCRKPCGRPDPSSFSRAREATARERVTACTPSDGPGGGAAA
T2 sequence (P32245 whole entry): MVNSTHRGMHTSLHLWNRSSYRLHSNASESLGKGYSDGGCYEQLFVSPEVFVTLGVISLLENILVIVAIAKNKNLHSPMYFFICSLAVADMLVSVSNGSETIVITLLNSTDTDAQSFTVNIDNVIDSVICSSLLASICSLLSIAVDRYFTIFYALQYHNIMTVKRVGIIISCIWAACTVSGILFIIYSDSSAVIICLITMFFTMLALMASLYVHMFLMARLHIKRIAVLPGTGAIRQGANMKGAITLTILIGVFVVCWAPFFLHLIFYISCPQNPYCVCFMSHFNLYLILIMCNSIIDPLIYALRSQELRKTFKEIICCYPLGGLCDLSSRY
T8 sequence (P41145 whole entry): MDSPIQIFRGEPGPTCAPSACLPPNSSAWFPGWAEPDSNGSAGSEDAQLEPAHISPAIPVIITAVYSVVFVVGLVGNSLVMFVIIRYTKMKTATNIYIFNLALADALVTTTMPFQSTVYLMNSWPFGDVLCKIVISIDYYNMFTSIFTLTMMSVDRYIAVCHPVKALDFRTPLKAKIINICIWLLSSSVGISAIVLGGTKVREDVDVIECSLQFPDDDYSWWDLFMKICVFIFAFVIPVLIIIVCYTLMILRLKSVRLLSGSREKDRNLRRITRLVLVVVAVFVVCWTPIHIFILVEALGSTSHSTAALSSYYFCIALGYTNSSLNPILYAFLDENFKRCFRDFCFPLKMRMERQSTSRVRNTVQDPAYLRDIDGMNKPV
T9 sequence (P41968 whole entry): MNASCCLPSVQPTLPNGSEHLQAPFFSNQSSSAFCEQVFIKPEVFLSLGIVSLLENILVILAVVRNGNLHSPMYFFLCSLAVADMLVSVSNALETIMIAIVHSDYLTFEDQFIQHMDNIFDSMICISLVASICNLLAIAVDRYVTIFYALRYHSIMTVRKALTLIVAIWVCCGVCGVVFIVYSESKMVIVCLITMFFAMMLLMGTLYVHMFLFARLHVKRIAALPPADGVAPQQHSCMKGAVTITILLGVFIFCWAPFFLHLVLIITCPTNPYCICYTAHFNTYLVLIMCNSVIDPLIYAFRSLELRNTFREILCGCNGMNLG
T6 sequence (P33032 whole entry): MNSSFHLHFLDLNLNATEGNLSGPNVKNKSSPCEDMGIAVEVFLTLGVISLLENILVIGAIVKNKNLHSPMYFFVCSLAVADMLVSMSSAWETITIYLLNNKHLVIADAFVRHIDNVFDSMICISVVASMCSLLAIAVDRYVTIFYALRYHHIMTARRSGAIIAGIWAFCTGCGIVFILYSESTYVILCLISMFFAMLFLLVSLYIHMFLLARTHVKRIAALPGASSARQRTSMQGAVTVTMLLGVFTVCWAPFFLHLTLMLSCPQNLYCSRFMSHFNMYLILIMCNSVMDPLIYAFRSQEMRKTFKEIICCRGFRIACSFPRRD
T5 sequence (P41146 whole entry): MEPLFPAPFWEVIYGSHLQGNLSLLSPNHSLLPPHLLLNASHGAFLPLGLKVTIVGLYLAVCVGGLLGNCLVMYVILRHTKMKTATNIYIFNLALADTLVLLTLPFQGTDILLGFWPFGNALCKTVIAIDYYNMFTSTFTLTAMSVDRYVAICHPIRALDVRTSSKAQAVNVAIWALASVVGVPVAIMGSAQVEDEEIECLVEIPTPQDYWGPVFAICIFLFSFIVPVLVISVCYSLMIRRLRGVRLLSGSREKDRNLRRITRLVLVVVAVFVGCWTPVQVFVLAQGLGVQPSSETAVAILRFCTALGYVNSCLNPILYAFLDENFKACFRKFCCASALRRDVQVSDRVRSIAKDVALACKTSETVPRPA

For `N=C(N)NCC(=O)N[C@H]1C(OCc2ccc(Cl)cc2)O[C@H](COCc2ccc(Cl)cc2)[C@@H](O)[C@@H]1OCc1ccc(-c2ccccc2)cc1` (stereo partly shown) [compound 520], the “A11: inhibition of radioligand binding, mouse urotensin (mUR2)” value [1] was “− (“−” indicates less than 50% inhibition at 10 μM)”, the “A4: inhibition of radioligand binding, human melanocortin (MC4)” value [2] was “+ (“+” indicates greater than 50% inhibition at 10 μM)” and the “A1: inhibition of radioligand binding, human δ-opioid (DOP)” value [3] was “− (“−” indicates less than 50% inhibition at 10 μM)”. The “A6: inhibition of radioligand binding, human melanin-concentrating hormone (MCH1)” value ([4]; [125I]-S36057) was “+ (“+” indicates greater than 50% inhibition at 10 μM)”, the “A10: inhibition of radioligand binding, human opioid (ORL1)” value ([5]; 10 µM) was “− (“−” indicates less than 50% inhibition at 10 μM)” and the “A5: inhibition of radioligand binding, human melanocortin (MC5)” value [6] was “+ (“+” indicates greater than 50% inhibition at 10 μM)”. The “A8: inhibition of radioligand binding, human neurokinin (NK1)” value [7] was “+ (“+” indicates greater than 50% inhibition at 10 μM)”, the “A2: inhibition of radioligand binding, human κ-opioid (KOP)” value [8] was “− (“−” indicates less than 50% inhibition at 10 μM)” and the “A3: inhibition of radioligand binding, human melanocortin (MC3)” value [9] was “+ (“+” indicates greater than 50% inhibition at 10 μM)”. For the same molecule, the “A7: inhibition of radioligand binding, human μ-opioid (MOP)” value [10] was “− (“−” indicates less than 50% inhibition at 10 μM)” and the “A9: inhibition of radioligand binding, human neuropeptide Y (NPY-Y1)” value [11] was “− (“−” indicates less than 50% inhibition at 10 μM)”.
In the case of `NCCCC(=O)NC1C(OCc2ccc3ccccc3c2)OC(COCc2ccc3ccccc3c2)C(O)C1OCc1ccc(Cl)cc1` (single isomer, unassigned) [compound 455], the “A11: inhibition of radioligand binding” value ([1]; mouse mUR2 membranes) is reported as “− (“−” indicates less than 50% inhibition at 10 μM)”, the “A4: inhibition of radioligand binding” value ([2]; human MC4 membranes) is reported as “+ (“+” indicates greater than 50% inhibition at 10 μM)” and the “A1: inhibition of radioligand binding” value ([3]; human DOP membranes) is reported as “− (“−” indicates less than 50% inhibition at 10 μM)”. For the same molecule, the “A6: inhibition of radioligand binding” value [4, 12] was “+ (“+” indicates greater than 50% inhibition at 10 μM)”, the “A10: inhibition of radioligand binding” value ([5]; human ORL1 membranes, 10 µM) was “− (“−” indicates less than 50% inhibition at 10 μM)” and the “A5: inhibition of radioligand binding” value ([6]; human MC5 membranes) was “+ (“+” indicates greater than 50% inhibition at 10 μM)”. The “A8: inhibition of radioligand binding” value ([7]; human NK1 membranes) was “+ (“+” indicates greater than 50% inhibition at 10 μM)”, the “A2: inhibition of radioligand binding” value ([8]; human KOP membranes, 10 µM) was “+ (“+” indicates greater than 50% inhibition at 10 μM)” and the “A3: inhibition of radioligand binding” value ([9]; human MC3 membranes) was “+ (“+” indicates greater than 50% inhibition at 10 μM)”. For the same molecule, the “A7: inhibition of radioligand binding” value ([10]; human MOP membranes, 10 µM) was “+ (“+” indicates greater than 50% inhibition at 10 μM)” and the “A9: inhibition of radioligand binding” value ([11]; human NPY-Y1 membranes) was “− (“−” indicates less than 50% inhibition at 10 μM)”.
For `NCCCC(=O)NC1C(OCc2ccc3ccccc3c2)OC(COCc2ccccc2)C(O)C1OCc1ccccc1` (stereo not shown) [compound 397], the “A11: inhibition of radioligand binding” value ([1]; mouse mUR2 membranes) was “− (“−” indicates less than 50% inhibition at 10 μM)”, the “A4: inhibition of radioligand binding” value ([2]; human MC4 membranes, 10 µM) was “+ (“+” indicates greater than 50% inhibition at 10 μM)” and the “A1: inhibition of radioligand binding” value ([3]; human DOP membranes) was “− (“−” indicates less than 50% inhibition at 10 μM)”. The “A6: inhibition of radioligand binding” value [4, 12] was “− (“−” indicates less than 50% inhibition at 10 μM)”, the “A10: inhibition of radioligand binding” value ([5]; human ORL1 membranes, 10 µM) was “+ (“+” indicates greater than 50% inhibition at 10 μM)” and the “A5: inhibition of radioligand binding” value ([6]; human MC5 membranes) was “− (“−” indicates less than 50% inhibition at 10 μM)”. The “A8: inhibition of radioligand binding” value ([7]; human NK1 membranes) was “+ (“+” indicates greater than 50% inhibition at 10 μM)”, the “A2: inhibition of radioligand binding” value ([8]; human KOP membranes) was “− (“−” indicates less than 50% inhibition at 10 μM)” and the “A3: inhibition of radioligand binding” value ([9]; human MC3 membranes) was “− (“−” indicates less than 50% inhibition at 10 μM)”. For the same molecule, the “A7: inhibition of radioligand binding” value ([10]; human MOP membranes, 10 µM) was “− (“−” indicates less than 50% inhibition at 10 μM)” and the “A9: inhibition of radioligand binding” value ([11]; human NPY-Y1 membranes) was “− (“−” indicates less than 50% inhibition at 10 μM)”.
With `CSC1OC(COCc2ccccc2)C(O)C(OCc2ccccc2)C1NC(=O)CCCNC(=N)N` (stereo not shown) [compound 252] the “A11: inhibition of radioligand binding” value ([1]; FlashPlate) was “− (“−” indicates less than 50% inhibition at 10 μM)”, the “A4: inhibition of radioligand binding” value ([2]; FlashPlate) was “− (“−” indicates less than 50% inhibition at 10 μM)” and the “A1: inhibition of radioligand binding” value ([3]; FlashPlate) was “− (“−” indicates less than 50% inhibition at 10 μM)”. For the same molecule, the “A6: inhibition of radioligand binding” value ([4]; [125I]-S36057, FlashPlate) was “− (“−” indicates less than 50% inhibition at 10 μM)”, the “A10: inhibition of radioligand binding” value ([5]; FlashPlate) was “− (“−” indicates less than 50% inhibition at 10 μM)” and the “A5: inhibition of radioligand binding” value ([6]; FlashPlate) was “− (“−” indicates less than 50% inhibition at 10 μM)”. The “A8: inhibition of radioligand binding” value ([7]; filtration) was “+ (“+” indicates greater than 50% inhibition at 10 μM)”, the “A2: inhibition of radioligand binding” value ([8]; filtration) was “− (“−” indicates less than 50% inhibition at 10 μM)” and the “A3: inhibition of radioligand binding” value ([9]; FlashPlate) was “− (“−” indicates less than 50% inhibition at 10 μM)”. For the same molecule, the “A7: inhibition of radioligand binding” value ([10]; FlashPlate) was “− (“−” indicates less than 50% inhibition at 10 μM)” and the “A9: inhibition of radioligand binding” value ([11]; FlashPlate) was “− (“−” indicates less than 50% inhibition at 10 μM)”.
For `NCCCC(=O)NC1C(OCc2ccc3ccccc3c2)OC(COCc2ccc3ccccc3c2)C(O)C1OCc1ccccc1` (stereo not shown) [compound 396], the “A11: inhibition of radioligand binding” value ([1]; mouse mUR2 membranes) was “− (“−” indicates less than 50% inhibition at 10 μM)”, the “A4: inhibition of radioligand binding” value ([2]; human MC4 membranes, 10 µM) was “+ (“+” indicates greater than 50% inhibition at 10 μM)” and the “A1: inhibition of radioligand binding” value ([3]; human DOP membranes) was “− (“−” indicates less than 50% inhibition at 10 μM)”. For the same molecule, the “A6: inhibition of radioligand binding” value ([4]; [125I]-S36057, human MCH1 membranes, 10 µM) was “− (“−” indicates less than 50% inhibition at 10 μM)”, the “A10: inhibition of radioligand binding” value ([5]; human ORL1 membranes, 10 µM) was “− (“−” indicates less than 50% inhibition at 10 μM)” and the “A5: inhibition of radioligand binding” value ([6]; human MC5 membranes) was “+ (“+” indicates greater than 50% inhibition at 10 μM)”. For the same molecule, the “A8: inhibition of radioligand binding” value ([7]; human NK1 membranes) was “+ (“+” indicates greater than 50% inhibition at 10 μM)”, the “A2: inhibition of radioligand binding” value ([8]; human KOP membranes) was “− (“−” indicates less than 50% inhibition at 10 μM)” and the “A3: inhibition of radioligand binding” value ([9]; human MC3 membranes, 10 µM) was “+ (“+” indicates greater than 50% inhibition at 10 μM)”. For the same molecule, the “A7: inhibition of radioligand binding” value ([10]; human MOP membranes) was “− (“−” indicates less than 50% inhibition at 10 μM)” and the “A9: inhibition of radioligand binding” value ([11]; human NPY-Y1 membranes) was “− (“−” indicates less than 50% inhibition at 10 μM)”.
